According to patent publication US20250215016A1, “ISOXAZOLE-HETEROCYCLIC DERIVATIVE, PHARMACEUTICAL COMPOSITION AND USE” (SHANGHAI SIMR BIOTECHNOLOGY CO., LTD, priority 2022, published 2025):
Converted amounts (≈) assume the structure as drawn.

What was measured:
[1] = Thermodynamic solubility in simulated intestinal fluid (FaSSIF); format: physicochemical; settings: simulated intestinal fluid (FaSSIF), thermodynamic from solid, 37° C., 1000 rpm
Method: 50 mM of phosphate buffer, pH=7.4:0.39 g of NaH2PO4·2H2O, 1.4025 g of Na2HPO4 were weighed, placed into an Erlenmeyer flask, dissolved with the addition of 240 ml of water, homogenously mixed, adjusted to pH 7.4 with 10 M NaOH solution, transferred into a 250 ml volumetric flask and diluted with water to the scale.
Simulated intestinal fluid FaSSIF: 54.76 mg of FaSSIF-V2 (Biorelevant, batch. V2FAS-0619-A, lot. V2FAS01) was weighed, and added to 15 ml of buffer, and after dissolution, the solution was made up to 30 ml and left to stand at room temperature for 1 hour for use.
Waters e2695 HPLC high performance liquid chromatography, Mettler XSE105 analytical balance.
Stock solution containing 10 mM of each test compound was formulated using DMSO, diluted into […] standard curve solution using diluent (ACN:PB buffer with a volume ratio of 50:50), and tested by HPLC to obtain a standard curve of concentration vs peak area of each test compound.
Thermodynamic solubility in simulated intestinal fluid (TS in FaSSIF). About 0.3 mg of each sample (test compound) was weighed, added into 1.5 mL of FaSSIF solution, two samples in parallel, shaken at 1000 rpm and 37° C. for 4 hours, and filtered, 1 mL of primary filtrate was discarded, then 400 μL of subsequent filtrate was taken, and tested by using a high performance liquid chromatograph (UV).

α5-GABAA receptor [2] = target: α5-GABAA receptor (Homo sapiens (Human), UniProt P18507+P31644); test: Whole-cell patch clamp electrophysiology, inverse regulation activity in α5β3γ2-HEK293 cells; format: cell-based; settings: compound 100 nM; GABA 0.05-0.06 μM (about EC7-8); clamped at −60 mV; read-out: Inverse regulation efficiency to α5-GABAA receptor
Method in brief: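 HEK293 cells expressing α5β3γ2 recorded whole-cell at −60 mV holding potential, GABA 0.05-0.06 μM (about EC7-8) applied, then compound at 100 nM final with GABA. pH 7.4 extracellular, CsCl-based pipette solution. Inverse regulation efficiency = (Itreatment−Igaba)/(Igaba−Iprebaseline)×100%.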

[3] = target: human α5β3γ2 receptor (α5-GABAA receptor) (Homo sapiens (Human), UniProt P18507+P31644); test: Radioligand (3H-flunitrazepam) competition binding assay, BZD site; settings: 3H-flunitrazepam 1 nM; HEK293 membranes expressing human α5β3γ2
Method in brief: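 Membranes from HEK293 cells stably expressing human α2β3γ2 or α5β3γ2 (5 μg protein/well) incubated 1 h at room temperature with 1 nM ^3H-flunitrazepam and 8-point 4-fold compound dilutions; nonspecific binding defined with 10 μM flumazenil. Filter-bound radioactivity counted; Ki derived from fitted IC50.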

α5-GABAA receptor [4] = target: α5-GABAA receptor (Homo sapiens (Human), UniProt P31644); settings: highest concentration of L-655,708; GABA 1 μM; cited from earlier work

solubility thermodynamic at 4 h [1] [µg/mL]	inhibition at 0.1 µM (α5-GABAA receptor [2]) [%]	Ki [3] [nM]	Structure (SMILES)	Inhibition of GABA-induced current (α5-GABAA receptor [4]) [%]
32.9 (≈ 67.8 µM)	–	–	Cc1onc(-c2ccc(F)cc2)c1COc1ccc(-c2nnc3n2CCN(S(C)(=O)=O)C3)cn1 [Compound 31, 3-(4-fluorophenyl)-5-methyl-4-(((5-(7-(methylsulfonyl)-5,6,7,8-tetrahydro-[1,2,4]triazolo[4,3-a]pyrazin-3-yl)pyridin-2-yl)oxy)methyl)isoxazole]	–
191 (≈ 426 µM)	41	9.86	CC(=O)N1CCn2c(nnc2-c2ccc(OCc3c(-c4ccc(F)cc4)noc3C)nc2)C1 [Compound 30, 1-(3-(6-((3-(4-fluorophenyl)-5-methylisoxazol-4-yl)methoxy)pyridin-3-yl)-5,6-dihydro-[1,2,4]triazolo[4,3-a]pyrazin-7(8H)-yl)ethan-1-one]	–
–	–	–	CCOC(=O)c1ncn2c1[C@@H]1CCCN1C(=O)c1cc(OC)ccc1-2 [L-655,708]	15
0.9 (≈ 2.58 µM)	–	–	Cc1noc(-c2ccc(OCc3c(-c4ccccc4)noc3C)nc2)n1 [WO2009071476, Example 245, reference compound]	–
